From patent publication US11533912B2, “Use of cinnamate compounds in the control of fungal diseases of crops” (Institute of Plant Protection, Gansu Academy of …, priority 2019, dated 2022)
Like-named read-outs stand apart in the source and are kept apart here.

Experiments:
Valsa mali = test: Ex vivo mycelial growth, growth rate method; assay type: cell-based; conditions: 1 mg/mL
Phytophthora infestans [1] = assay type: cell-based; conditions: Phytophthora infestans (second line), 1 mg/mL
Phytophthora capsici = test: Ex vivo mycelial growth, growth rate method; assay type: cell-based
F. oxysporum f. sp. lini = test: Ex vivo mycelial growth, growth rate method; assay type: cell-based; conditions: 1 mg/mL
[2] = tested on: Erysiphe cucurbitacearum or Sphaerotheca cucurbitae; test: In-vivo control of zucchini powdery mildew in a greenhouse
Method: (2) In-Vivo Determination Method • Zucchini (Variety: Wuwei Xianglin extra-early 1st generation) were cultured in pots in a greenhouse, and inoculated with Erysiphe cucurbitacearum or Sphaerotheca cucurbitae at the stage of 3 to 4 leaves. […] Both sides of the leaves were sprayed evenly with a small hand-held sprayer so that the leaves were wetted by the liquor without loss. Applications were conducted every 7 days consecutively for 4 times. 10 days after the fourth application, the number of disease leaves at each grade of powdery mildew was investigated for the whole plant following the grading standard of 9 grades, to calculate the disease index and the control effect. The computational formula is as below: Disease index=[(Number of disease leaves at each grade×Corresponding grade value)/(Total number of investigated leaves×9)]×100; Control effect=(Disease index of the clear water control−Treated disease index)/Disease index of the clear water control×100.

[3] = tested on: F. oxysporum f. sp. vasinfectum; test: Ex vivo mycelial growth, growth rate method; assay type: cell-based; conditions: 1 mg/mL
Mycosphaerlla melonis = test: Ex vivo mycelial growth, growth rate method; assay type: cell-based; conditions: 1 mg/mL
E. polygoni = test: In-vivo control of marrow bean powdery mildew in a greenhouse
Method: (2) In-Vivo Determination Method • Marrow bean (Variety: Thailand Jiadouwang) were cultured in pots in a greenhouse, and inoculated with E. polygoni at the stage of 4 leaves. […] Both sides of the leaves were sprayed evenly with a small hand-held sprayer so that the leaves were wetted by the liquor without loss. Applications were conducted every 7 days consecutively for 4 times. 10 days after the fourth application, the number of disease leaves at each grade of powdery mildew was investigated for the whole plant following the grading standard of 9 grades, to calculate the disease index and the control effect.

[4] = tested on: damping-off (P. aphanidermatum, P capsici); test: In-vivo control of pepper damping-off in a greenhouse (sick soil); conditions: 0.80 mg/mL, 200 mL liquor per pot
Method: (§1) (2) In-Vivo Determination Method • Sick soil of damping-off (P. aphanidermatum, P capsici) was collected from the fields of tomatoes, eggplants and peppers in solar greenhouse, and mixed evenly in equal proportion. Tomatoes (Variety: Song Tian Fen Yang Yang, 100 grains), eggplants (Variety: Lanza No. 2 F1 long eggplant, 100 grains), pepper (Longjiao 2 F1, 100 grains) were seeded quantitatively with the sick soil in pots (diameter: 15 cm) in a greenhouse, additionally with sterile vermiculite as the control (each 100 grains for determining the germination rate). […] The computational formula is as below: Mortality of Seedlings (%)=[number of survival seedlings in the seeded grains−number of seeded grains×(100%−germination rate)]/number of seeded grains×100; Control Effect (%)=(mortality of control seedlings−mortality of treated seedlings)/mortality of control seedlings×100.

Thanatephorus cucumeris = test: Ex vivo mycelial growth, growth rate method; assay type: cell-based; conditions: 1 mg/mL
Phytophthora infestans [5] = assay type: cell-based; conditions: Phytophthora infestans (first line), 1 mg/mL
[6] = tested on: Botryosphaeria berengeriana; test: Ex vivo mycelial growth, growth rate method (line 'Botryosphaeria berengeriana', r34); assay type: cell-based; conditions: Botryosphaeria berengeriana (second line), 1 mg/mL
Pythium aphanidermatum = test: Ex vivo mycelial growth, growth rate method; assay type: cell-based; conditions: 1 mg/mL
[7] = tested on: Botryosphaeriana berengeriana; test: Ex vivo mycelial growth, growth rate method (line 'Botryosphaeriana berengeriana', r23); assay type: cell-based; conditions: Botryosphaeriana berengeriana (first line), 1 mg/mL
plant pathogenic fungi = test: organism not typed; assay type: cell-based; conditions: read-out: inhibition rate on mycelial growth, range over 9 fungi
[8] = tested on: damping-off (P. aphanidermatum, P capsici); test: In-vivo control of tomato damping-off in a greenhouse (sick soil); conditions: 0.80 mg/mL, 200 mL liquor per pot
Method: as §1

Pyricularia grisea = test: microbe, parasite or virus in culture; assay type: cell-based
F. verticillioide = test: Ex vivo mycelial growth, growth rate method; assay type: cell-based; conditions: 1 mg/mL
F. graminearum = test: microbe, parasite or virus in culture; assay type: cell-based
Colletotrichum capsici = test: Ex vivo mycelial growth, growth rate method; assay type: cell-based; conditions: 1 mg/mL
Exserohilum turcicum = test: Ex vivo mycelial growth, growth rate method; assay type: cell-based; conditions: 1 mg/mL
[9] = tested on: Blumeria graminis f. sp. trilici; test: In-vivo control of wheat powdery mildew in a greenhouse; set-up: species or system Blumeria graminis f. sp. trilici on winter wheat
C. gossypii = test: Ex vivo mycelial growth, growth rate method; assay type: cell-based; conditions: 1 mg/mL
Fusarium graminearum = test: microbe, parasite or virus in culture; assay type: cell-based
Sclerotinia sclerotiorum = test: Ex vivo mycelial growth, growth rate method; assay type: cell-based; conditions: 1 mg/mL
Rhizoctonia solani = test: Ex vivo mycelial growth, growth rate method; assay type: cell-based; conditions: 1 mg/mL
Coniella diplodiella = test: Ex vivo mycelial growth, growth rate method; assay type: cell-based; conditions: 1 mg/mL
Botrytis cinerea = test: Ex vivo mycelial growth, growth rate method; assay type: cell-based; conditions: 1 mg/mL
zucchini powdery mildew = test: Field efficiency test on zucchini powdery mildew; assay type: in vivo; conditions: 0.50 mg/mL
[10] = tested on: Gaeumannomyces graminis var. graminis and G. graminis var. tritici; test: Ex vivo mycelial growth, growth rate method; assay type: cell-based; conditions: 1 mg/mL
E. cichoracearum = test: Field efficiency test on cucumber powdery mildew; conditions: 0.50 mg/mL (active ingredients)
Method: The first application was started on Jun. 15, 2018, and E. cichoracearum was inoculated on June 17th (the diseased leaves were harvested from the solar greenhouse near the military airfield at Xiaguanying town, Yuzhong County, moisturized in the greenhouse for 2 days, then shredded, and filtered over a gauze, the filtrate was sprayed onto both sides of the cucumber leaves with the cone nozzle of an electric sprayer for inoculation). The second, third and fourth applications were conducted on June 23rd, July 2nd, and July 9th respectively, the water consumptions of which were adjusted promptly according to the amount of water desired for spraying evenly onto both sides of the control leaves. 10 days after the fourth application, the number of disease leaves at each grade of powdery mildew was investigated following the grading standard of 9 grades, to calculate the disease index and the control effect.

cucumber = test: Crop safety (phytotoxicity) in the cucumber field test; conditions: at the test doses (triazole control agents: 1500 fold liquid)
zucchini = conditions: in vivo
From the text: The first application was started on August 26th, at the early onset of powdery mildew (the average disease index is 10.07). The instrument for application was Agrolex HD 400 Model hand operating knapsack sprayer, which employed a cone nozzle. Each agent was formulated into the desired concentrations according to the usage amount of the control clear water. Both sides of the leaves were sprayed evenly so that the leaves were wetted by the liquor without loss. […] Thereafter, applications were conducted every 7 days consecutively for 4 times. 10 days after the last application, the number of disease leaves at each grade of powdery mildew was investigated for the whole plant following the grading standard of 9 grades, to calculate the disease index and the control effect.

[11] = mycelial growth, Phytophthora capsici, 1 mg/mL
[12] = Fusarium oxysporum, mycelial growth
[13] = F. graminearum (second line), 1 mg/mL
[14] = Fusarium graminearum, read-out: Inhibition Rate

## CCOC(=O)/C=C/c1ccc(OC)c(F)c1 [ethyl 3-(3′-fluoro-4′-methoxyphenyl) acrylate]
Valsa mali
  Average Diameter of the Colony: 0.85 cm
Valsa mali; Cytospora mali, mycelial growth
  inhibition at 1000 µg/mL: 89.2%
Phytophthora infestans [1]
  Average Diameter of the Colony: 0.00 cm
Phytophthora capsici; Phytophthora capsici, 1 mg/mL
  Average Diameter of the Colony: 1.26 cm
Phytophthora capsici; [11]
  inhibition at 1000 µg/mL: 76.2%
Phytophthora capsici; supplementary determination results
  antifungal activity on Phytophthora capsici compared with hymexazol: superior to that of the control agent, hymexazol
F. oxysporum f. sp. lini
  Average Diameter of the Colony: 7.20 cm
F. oxysporum f. sp. lini; [12]
  inhibition at 1000 µg/mL: 20%
[2]; 0.20 mg/mL
  Control Effect: 52.71%
[2]; 0.333 mg/mL
  Control Effect: 95.60%
[2]; 0.50 mg/mL
  Control Effect: 97.11%
[3]
  Average Diameter of the Colony: 4.45 cm
[3]; [12]
  inhibition at 1000 µg/mL: 38.5%
Mycosphaerlla melonis
  Average Diameter of the Colony: 0.37 cm
Mycosphaerlla melonis; mycelial growth
  inhibition at 1000 µg/mL: 95.7%
E. polygoni; 0.10 mg/mL
  Control Effect: 77.26%
E. polygoni; 0.143 mg/mL
  Control Effect: 91.16%
E. polygoni; 0.20 mg/mL
  Control Effect: 94.51%
[4]
  control effect on pepper damping-off: 56.47%
Thanatephorus cucumeris
  Average Diameter of the Colony: 2.05 cm
Thanatephorus cucumeris; mycelial growth
  inhibition at 1000 µg/mL: 76.2%
Phytophthora infestans [5]
  Average Diameter of the Colony: 1.40 cm
[6]
  Average Diameter of the Colony: 1.72 cm
[6]; mycelial growth
  inhibition at 1000 µg/mL: 74.7%
Pythium aphanidermatum
  Average Diameter of the Colony: 2.60 cm
Pythium aphanidermatum; mycelial growth
  inhibition at 1000 µg/mL: 61.2%
[7]
  Average Diameter of the Colony: 1.19 cm
[7]; mycelial growth
  inhibition at 1000 µg/mL: 79.1%
Plant pathogenic fungi
  inhibition at 1000 µg/mL: 82 to 100%
[8]
  control effect on tomato damping-off: 51.02%
Pyricularia grisea; 1 mg/mL
  Average Diameter of the Colony: 7.70 cm
Pyricularia grisea; read-out: Inhibition Rate
  inhibition at 1000 µg/mL: 14.4%
F. verticillioide
  Average Diameter of the Colony: 2.34 cm
F. verticillioide; mycelial growth
  inhibition at 1000 µg/mL: 30.8%
F. graminearum; [13]
  Average Diameter of the Colony: 2.77 cm
F. graminearum; [14]
  inhibition at 1000 µg/mL: 67.8%
Colletotrichum capsici
  Average Diameter of the Colony: 0.11 cm
Colletotrichum capsici; Colletotrichum truncatum, mycelial growth
  inhibition at 1000 µg/mL: 98.4%
Exserohilum turcicum
  Average Diameter of the Colony: 0.10 cm
Exserohilum turcicum; mycelial growth
  inhibition at 1000 µg/mL: 98.4%
[9]; 0.143 mg/mL
  Control Effect: 64.75%
[9]; 0.20 mg/mL
  Control Effect: 67.60%
C. gossypii
  Average Diameter of the Colony: 0.42 cm
C. gossypii; Colletotrichum gossypii, mycelial growth
  inhibition at 1000 µg/mL: 92.2%
Fusarium graminearum; Fusarium graminearum (first line), 1 mg/mL
  Average Diameter of the Colony: 3.26 cm
Fusarium graminearum; [14]
  inhibition at 1000 µg/mL: 39.1%
Sclerotinia sclerotiorum
  Average Diameter of the Colony: 2.58 cm
Sclerotinia sclerotiorum; mycelial growth
  inhibition at 1000 µg/mL: 70%
Rhizoctonia solani
  Average Diameter of the Colony: 0.00 cm
Rhizoctonia solani; mycelial growth
  inhibition at 1000 µg/mL: 100%
Coniella diplodiella
  Average Diameter of the Colony: 0.00 cm
Coniella diplodiella; mycelial growth
  inhibition at 1000 µg/mL: 100%
Botrytis cinerea
  Average Diameter of the Colony: 1.35 cm
Botrytis cinerea; mycelial growth
  inhibition at 1000 µg/mL: 82%
Zucchini powdery mildew
  Control Effect: 85.82%
[10]
  Average Diameter of the Colony: 2.29 cm
[10]; mycelial growth
  inhibition at 1000 µg/mL: 40%
E. cichoracearum
  control effect on cucumber powdery mildew: 78.42%

## COC(=O)C=Cc1ccc(OC)c(OC)c1 [Control Compound A, methyl 3,4-dimethoxy cinnamate, reference compound]
Valsa mali
  Average Diameter of the Colony: 0.00 cm
Valsa mali; mycelial growth
  Inhibition Rate: 100%
Phytophthora infestans [1]
  Average Diameter of the Colony: 0.27 cm
Phytophthora infestans [1]; mycelial growth
  Inhibition Rate: 96.58%
Phytophthora capsici; Phytophthora capsici, 1 mg/mL
  Average Diameter of the Colony: 1.97 cm
Phytophthora capsici; [11]
  Inhibition Rate: 75.06%
[3]
  Average Diameter of the Colony: 2.43 cm
[3]; mycelial growth
  Inhibition Rate: 69.24%
Mycosphaerlla melonis
  Average Diameter of the Colony: 0.67 cm
Mycosphaerlla melonis; mycelial growth
  Inhibition Rate: 91.52%
cucumber
  phytotoxicity / safety for cucumber: safe for zucchini and cucumber
Phytophthora infestans [5]
  Average Diameter of the Colony: 2.77 cm
Phytophthora infestans [5]; mycelial growth
  Inhibition Rate: 64.94%
Pyricularia grisea; 1 mg/mL
  Average Diameter of the Colony: 3.83 cm
Pyricularia grisea; mycelial growth, 1 mg/mL
  Inhibition Rate: 51.52%
F. graminearum; [13]
  Average Diameter of the Colony: 4.90 cm
F. graminearum; mycelial growth, F. graminearum (second line), 1 mg/mL
  Inhibition Rate: 37.98%
Exserohilum turcicum
  Average Diameter of the Colony: 1.37 cm
Exserohilum turcicum; mycelial growth
  Inhibition Rate: 82.66%
C. gossypii
  Average Diameter of the Colony: 3.83 cm
C. gossypii; mycelial growth
  Inhibition Rate: 51.52%
Sclerotinia sclerotiorum
  Average Diameter of the Colony: 0.00 cm
Sclerotinia sclerotiorum; mycelial growth
  Inhibition Rate: 100%
Rhizoctonia solani
  Average Diameter of the Colony: 0.67 cm
Rhizoctonia solani; mycelial growth
  Inhibition Rate: 91.52%
Botrytis cinerea
  Average Diameter of the Colony: 2.27 cm
Botrytis cinerea; mycelial growth
  Inhibition Rate: 71.27%
zucchini
  safety for zucchini: safe for zucchini and cucumber
